{"source": "patent EP1542016A1", "about": "“PUMA, phosphorylated p53 and p38 map kinase as markers for HIV-1-induced apoptosis in circulating T cells of infected patient” (Institut Gustave Roussy, priority 2003, dated 2005)", "key": {"Env-elicited syncytia": {"test_system": "Env-elicited syncytia", "format": "cell-based", "settings": "SN50 20 µM, cyclic pifithrin-α 10 µM, added at the beginning of co-culture; Fig. 7D", "experimental": "HeLa/U937 cell co-cultures were performed at different ratios (6). U937 or Jurkat cells were cultured with recombinant gp120 protein (500 ng/ml)."}, "U937 cells": {"test_system": "U937 cells", "test": "Induction of Puma in U937 cells co-cultured with HeLa Env cells", "format": "cell-based", "design": "dose or concentration left out as unconfirmed", "settings": "36 hours, Fig. 8A", "experimental": "Figure 8A. Induction of Puma in U937 cells co-cultured with HeLa Env cells. U937 cells were mixed at different ratios with HeLa Env cells, just before the preparation of cell lysates for immunoblot detection of Puma (Control) or coculture for 36 hours, in the absence or presence of the p53 inhibitor cyclic pifithrin α […]. The percentage of dead U937 cells was determined by trypan blue exclusion.\n(§1) HeLa cells stably transfected with the Env gene of HIV-1 LAI (HeLa Env) and HeLa cells transfected with CD4 (HeLa CD4) were cocultured at a 1:1 ratio (6), in DMEM medium supplemented with 10 % FCS, L-glutamine, in the absence or presence of roscovitin (1 µM), rapamycin (1 µM, Sigma), cyclic pifithrin-α (10 µM), MG132 (5 µM, Calbiochem), the NF-κB-inhibitory peptide SN50, or its negative control SN50M (20 µM, Biomol). HeLa/U937 cell co-cultures were performed at different ratios (6). U937 or Jurkat cells were cultured with recombinant gp120 protein (500 ng/ml).\nProtein samples were prepared from HeLa Env and HeLa CD4 single cells mixed at a 1:1 ratio in lysis buffer (single cells control) or from HeLa Env/CD4 syncytia. Proteins samples from HeLa Env and U937 mixed at different ratios were also prepared and subjected to immunoblot analysis. […]"}, "Jurkat cells": {"test_system": "Jurkat cells", "test": "Apoptosis and Puma induction by recombinant gp120 protein in Jurkat cells", "format": "cell-based", "settings": "four days, gp120 500 ng/ml, cyclic pifithrin-α 10 µM, Fig. 8E", "experimental": "Figure 8D. Induction of Puma by recombinant gp120 protein in Jurkat cells (as in figure 8B).\nFigure 8E. Effect of cyclic pifithrin-alpha. Jurkat cells were treated for four days with gp120 protein (500 ng/ml) and or cyclic pifithrin-α (10 µM), followed by determination of Puma expression.\nas §1"}, "Env-induced syncytia": {"test_system": "Env-induced syncytia", "settings": "cited from earlier work"}}, "data": [{"smiles": "Cc1ccc(-c2cn3c4c(sc3n2)CCCC4)cc1", "note": "[pifithrin-α, cyclic pifithrin-α]", "values": [{"measurement": "activation of Bax and Bak", "setting": "Env-elicited syncytia", "result": "inhibited"}, {"measurement": "upregulation of Puma", "setting": "U937 cells", "result": "not inhibited"}, {"measurement": "gp120-induced apoptosis and Puma expression", "setting": "Jurkat cells", "result": "strongly inhibited"}, {"measurement": "syncytium-dependent cell death", "setting": "Env-induced syncytia; reference (5)", "result": "blocked"}, {"measurement": "Env-induced upregulation of Bax", "setting": "Env-induced syncytia; references (5, 7)", "result": "prevents"}, {"measurement": "syncytial cell death", "setting": "Env-induced syncytia; references (5, 7)", "result": "retards"}]}]}
